Reference: US9512175B2, “Macrocyclic inhibitors of flaviviridae viruses” (Gilead Sciences, Inc., priority 2012, dated 2016)

Legend:
cyclophilin A = cyclophilin A (Homo sapiens, UniProt P62937); experiment: Cyclophilin A TR-FRET competitive binding assay; settings: IC50 ranges; competition with CsA-Cy5 for His-tagged CypA, two-hour incubation; read-out: TR-FRET
Description: Cyclophilin A TR-FRET Competitive Binding Assay
Inhibitor potency was measured using a competitive binding assay with a time-resolved fluorescence resonance energy transfer (TR-FRET) readout. […] An IC50 value was calculated using a four-parameter logistic fit.

[1] = test system: HCV replicon (Replicon 1a); experiment: anti-HCV activity in Huh-7 cell line harboring a HCV replicon (Replicon 1a); format: cell-based; settings: Hepatitis C virus, Huh-7, 72 h, read-out: Replicon 1a % inhibition at 1 μM, 1 μM; human hepatoma Huh-7 HCV replicon cells, 3 days, luciferase readout

cyclophilin A, sequence (P62937 whole entry, species assumed): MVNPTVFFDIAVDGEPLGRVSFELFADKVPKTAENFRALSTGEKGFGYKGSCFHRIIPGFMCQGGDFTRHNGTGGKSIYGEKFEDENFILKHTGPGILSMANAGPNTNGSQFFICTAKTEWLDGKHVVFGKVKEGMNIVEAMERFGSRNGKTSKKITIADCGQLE

CC(=O)N1CCC2(/C=C/c3ccc4ccc(nc4c3)[C@@H](C)OC(=O)[C@@H]3CCCN(N3)C(=O)[C@H](C)NC(=O)[C@H](C(C)C)NC2=O)CC1 [Compound 135]
IC50 (cyclophilin A): < 0.1 µM | inhibition at 1 µM [1]: 94%

CC(C)[C@@H]1NC(=O)C2(/C=C/c3ccc4ccc(nc4c3)[C@@H](C)OC(=O)[C@@H]3CCCN(N3)C(=O)[C@H](C)NC1=O)CCN(CC(F)(F)F)CC2 [Compound 136]
IC50 (cyclophilin A): < 0.1 µM | inhibition at 1 µM [1]: 100%

COCc1cc2ccc3cc2nc1[C@@H](C)OC(=O)[C@@H]1CCCN(N1)C(=O)[C@H](C)NC(=O)[C@H](C(C)C)NC(=O)C(C)(C)/C=C/3 [Compound 137]
IC50 (cyclophilin A): < 0.1 µM | inhibition at 1 µM [1]: 100%

CC(C)[C@@H]1NC(=O)C(C)(C)/C=C/c2ccc3c(Cl)cc(nc3c2)[C@@H](C)OC(=O)[C@@H]2CCCN(N2)C(=O)[C@H](C)NC1=O [Compound 138]
IC50 (cyclophilin A): < 0.1 µM | inhibition at 1 µM [1]: 100%

CC1NC(=O)C(C(C)C)NC(=O)C(C)(C)/C=C/c2ccc3c(C#N)cc(nc3c2)C(C)OC(=O)C2CCCN(N2)C1=O (stereo not drawn) [Compound 141]
IC50 (cyclophilin A): < 0.1 µM | inhibition at 1 µM [1]: 99%

CC(C)[C@@H]1NC(=O)C(C)(C)/C=C/c2ccc3ccc(cc3c2)[C@@H](C)OC(=O)[C@@H]2CCCN(N2)C(=O)[C@H](C)NC1=O [Compound 142]
IC50 (cyclophilin A): < 0.1 µM | inhibition at 1 µM [1]: 99%

CC(C)[C@@H]1NC(=O)C(C)(C)/C=C/c2cc3cc(ccc3cn2)[C@@H](C)NC(=O)[C@@H]2CCCN(N2)C(=O)[C@H](C)NC1=O [Compound 143]
IC50 (cyclophilin A): < 0.1 µM | inhibition at 1 µM [1]: 31%

Cc1cc2nc3cc(ccc13)/C=C/C(C)(C)C(=O)N[C@@H](C(C)C)C(=O)N[C@@H](C)C(=O)N1CCC[C@H](N1)C(=O)O[C@@H]2C [Compound 144]
IC50 (cyclophilin A): < 0.1 µM | inhibition at 1 µM [1]: 100%

CC(C)[C@@H]1NC(=O)C(C)(C)/C=C/c2ccc3c(=O)[nH]c(nc3c2)[C@@H](C)OC(=O)C2CCCN(N2)C(=O)[C@@H](C)NC1=O (stereo partly drawn) [Compound 146]
IC50 (cyclophilin A): < 0.1 µM | inhibition at 1 µM [1]: 24%

CC(C)[C@@H]1NC(=O)C(C)(C)/C=C/c2ccc3c(=O)n(C)c(nc3c2)[C@@H](C)OC(=O)C2CCCN(N2)C(=O)[C@@H](C)NC1=O (stereo partly drawn) [Compound 147]
IC50 (cyclophilin A): < 0.1 µM | inhibition at 1 µM [1]: 94%

Cc1cc2cc3nc(ccc13)[C@@H](C)OC(=O)C1CCCN(N1)C(=O)[C@@H](C)NC(=O)[C@H](C(C)C)NC(=O)C(C)(C)/C=C/2 (stereo partly drawn) [Compound 148]
IC50 (cyclophilin A): < 0.1 µM | inhibition at 1 µM [1]: 100%

CO[C@@H](C)[C@H]1/C=C/c2ccc3ccc(nc3c2)[C@@H](C)OC(=O)[C@@H]2CCCN(N2)C(=O)[C@@H](C)NC(=O)[C@H](C(C)C)NC1=O [Compound 149]
IC50 (cyclophilin A): < 0.1 µM | inhibition at 1 µM [1]: 99%

CC(C)[C@@H]1NC(=O)C2(/C=C/c3ccc4ccc(nc4c3)[C@@H](C)OC(=O)[C@@H]3CCCN(N3)C(=O)[C@H](C)NC1=O)CC2 [Compound 152]
IC50 (cyclophilin A): < 0.1 µM | inhibition at 1 µM [1]: 100%

CC(C)[C@@H]1NC(=O)C2(/C=C/c3ccc4ccc(nc4c3)[C@@H](C)OC(=O)[C@@H]3CCCN(N3)C(=O)[C@H](C)NC1=O)CCOCC2 [Compound 153]
IC50 (cyclophilin A): < 0.1 µM | inhibition at 1 µM [1]: 100%

CC(C)[C@@H]1NC(=O)C2(/C=C/c3ccc4ccc(nc4c3)[C@@H](C)OC(=O)[C@@H]3CCCN(N3)C(=O)[C@H](C)NC1=O)CCCC2 [Compound 154]
IC50 (cyclophilin A): < 0.1 µM | inhibition at 1 µM [1]: 100%

CC(C)[C@@H]1NC(=O)[C@@]2(/C=C/c3ccc4ccc(nc4c3)[C@@H](C)OC(=O)[C@@H]3CCCN(N3)C(=O)[C@H](C)NC1=O)CCCN2C(=O)OC(C)(C)C [Compound 155]
IC50 (cyclophilin A): < 0.1 µM | inhibition at 1 µM [1]: 100%

CC(C)[C@@H]1NC(=O)[C@@]2(/C=C/c3ccc4ccc(nc4c3)[C@@H](C)OC(=O)[C@@H]3CCCN(N3)C(=O)[C@H](C)NC1=O)CCCN2S(C)(=O)=O [Compound 156]
IC50 (cyclophilin A): < 0.1 µM | inhibition at 1 µM [1]: 87%

CC(C)[C@@H]1NC(=O)[C@]2(/C=C/c3ccc4ccc(nc4c3)[C@@H](C)OC(=O)[C@@H]3CCCN(N3)C(=O)[C@H](C)NC1=O)CC[C@H](O)CC2 [Compound 158]
IC50 (cyclophilin A): < 0.1 µM | inhibition at 1 µM [1]: 100%
